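In this assay, cells in 96-well plates receive the compound at five concentrations for 48 hours. Endpoints are linearly interpolated between the surrounding concentrations. Here, GI50 denotes the concentration required for 50% inhibition of growth.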 The source made the active and inactive calls. No stated cut-off is given here; in the data, active = GI50 up to about 1.1 µM and inactive = higher.
What was measured:
Experiment in all cases: NCI tumour cell line growth inhibition, 48 h
NCI-H522 = system: NCI-H522
RXF 393 = system: RXF 393
MDA-MB-435 = system: MDA-MB-435
A549 = system: A549
LOX IMVI = system: LOX IMVI
SR = system: SR
ACHN = system: ACHN
EKVX = system: EKVX
HT-29 = system: HT-29
COLO 205 = system: COLO 205
NCI/ADR-RES = system: NCI/ADR-RES
NCI-H226 = system: NCI-H226
RPMI-8226 = system: RPMI-8226
786-0 = system: 786-0
KM12 = system: KM12
OVCAR-5 = system: OVCAR-5
HOP-62 = system: HOP-62
OVCAR-4 = system: OVCAR-4
HCT-116 = system: HCT-116
UACC-62 = system: UACC-62

Row | SMILES | GI50 (NCI-H522) | GI50 (RXF 393) | GI50 (MDA-MB-435) | GI50 (A549) | GI50 (LOX IMVI) | GI50 (SR) | GI50 (ACHN) | GI50 (EKVX) | GI50 (HT-29) | GI50 (COLO 205) | GI50 (NCI/ADR-RES) | GI50 (NCI-H226) | GI50 (RPMI-8226) | GI50 (786-0) | GI50 (KM12) | GI50 (OVCAR-5) | GI50 (HOP-62) | GI50 (OVCAR-4) | GI50 (HCT-116) | GI50 (UACC-62)
1 | C[C@@H]1CCC2[C@@H](C)[C@@H](OCCO[C@H]3OC4O[C@@]5(C)CCC6[C@H](C)CCC([C@H]3C)[C@@]46OO5)OC3O[C@@]4(C)CCC1[C@]32OO4 (stereo not given in full) | 0.0689 µM (active) | 0.94 µM (active) | 0.239 µM (active) | 0.0634 µM (active) | 0.0565 µM (active) | 0.0345 µM (active) | 0.154 µM (active) | 1.48 µM (inactive) | 0.05 µM (active) | 0.0514 µM (active) | 0.241 µM (active) | 0.289 µM (active) | < 0.01 µM (active) | 0.361 µM (active) | 0.056 µM (active) | 0.0826 µM (active) | 1.34 µM (inactive) | 0.0361 µM (active) | 0.0251 µM (active) | 0.279 µM (active)
2 | Cc1ccc(/N=N/c2c(O)ccc3ccccc23)cc1 | > 100 µM (inactive) | > 100 µM (inactive) | > 100 µM (inactive) | > 100 µM (inactive) | > 100 µM (inactive) | 11.7 µM (inactive) | > 100 µM (inactive) | > 100 µM (inactive) | > 100 µM (inactive) | > 100 µM (inactive) | > 100 µM (inactive) | > 100 µM (inactive) | 99.3 µM (inactive) | > 100 µM (inactive) | 98.6 µM (inactive) | > 100 µM (inactive) | 82 µM (inactive) | > 100 µM (inactive) | > 100 µM (inactive) | > 100 µM (inactive)
3 | CCOC(=O)C1C2C1C1C(C(=O)OCC)C21 (stereo not given) | > 100 µM (inactive) | 81.8 µM (inactive) | > 100 µM (inactive) | > 100 µM (inactive) | > 100 µM (inactive) | 52 µM (inactive) | > 100 µM (inactive) | > 100 µM (inactive) | 57.5 µM (inactive) | > 100 µM (inactive) | > 100 µM (inactive) | > 100 µM (inactive) | 50.4 µM (inactive) | > 100 µM (inactive) | > 100 µM (inactive) | > 100 µM (inactive) | > 100 µM (inactive) | > 100 µM (inactive) | > 100 µM (inactive) | > 100 µM (inactive)
4 | C[C@]12CC[C@H]3[C@@H](CC=C4C[C@@H](O)CC[C@@]43C)[C@@H]1C/C(=C\c1cccnc1)[C@@H]2O | 12.6 µM (inactive) | 15 µM (inactive) | > 100 µM (inactive) | 7.83 µM (inactive) | 1.28 µM (inactive) | 1.57 µM (inactive) | 5.82 µM (inactive) | 3.97 µM (inactive) | 43.8 µM (inactive) | > 100 µM (inactive) | 11.8 µM (inactive) | 5.25 µM (inactive) | > 100 µM (inactive) | 19 µM (inactive) | > 100 µM (inactive) | 41.4 µM (inactive) | 4.67 µM (inactive) | 4.68 µM (inactive) | 25 µM (inactive) | 7.96 µM (inactive)
5 | CC[C@@]1(OC(=O)CCC(=O)O)C(=O)OCc2c1cc1n(c2=O)Cc2cc3ccccc3nc2-1 | 0.103 µM (active) | 0.257 µM (active) | 0.435 µM (active) | 0.0773 µM (active) | 0.0375 µM (active) | < 0.01 µM (active) | 0.0208 µM (active) | 1.36 µM (inactive) | 0.366 µM (active) | 0.692 µM (active) | 0.0383 µM (active) | 0.193 µM (active) | 0.193 µM (active) | 0.0263 µM (active) | 0.659 µM (active) | 0.363 µM (active) | 0.0139 µM (active) | 1.46 µM (inactive) | 0.104 µM (active) | 0.0187 µM (active)
6 | CCC(CCC(C)C1CCC2C3CC=C4CC(OC5OC(CO)C(O)C(O)C5O)CCC4(C)C3CCC12C)C(C)C (stereo not given) | > 100 µM (inactive) | > 100 µM (inactive) | > 100 µM (inactive) | > 100 µM (inactive) | > 100 µM (inactive) | 26.4 µM (inactive) | > 100 µM (inactive) | > 100 µM (inactive) | > 100 µM (inactive) | > 100 µM (inactive) | > 100 µM (inactive) | > 100 µM (inactive) | > 100 µM (inactive) | > 100 µM (inactive) | > 100 µM (inactive) | > 100 µM (inactive) | > 100 µM (inactive) | > 100 µM (inactive) | > 100 µM (inactive) | > 100 µM (inactive)
7 | O=c1ccs[nH]1 | 0.42 µM (active) | 7.96 µM (inactive) | 13.6 µM (inactive) | 19.9 µM (inactive) | 7.26 µM (inactive) | 2.54 µM (inactive) | 7.05 µM (inactive) | 3.37 µM (inactive) | 11.2 µM (inactive) | 8.91 µM (inactive) | 17.7 µM (inactive) | 51.1 µM (inactive) | 2.7 µM (inactive) | 6.15 µM (inactive) | 26.7 µM (inactive) | 16.3 µM (inactive) | 17 µM (inactive) | 16 µM (inactive) | 8.79 µM (inactive) | 16.4 µM (inactive)
8 | C[C@H](CCCOS(C)(=O)=O)[C@H]1CC[C@H]2[C@@H]3CC[C@@H]4C[C@H](OS(C)(=O)=O)CC[C@]4(C)[C@H]3CC[C@]12C | 29.7 µM (inactive) | 52 µM (inactive) | 20.5 µM (inactive) | 17 µM (inactive) | 31.7 µM (inactive) | 19.2 µM (inactive) | 15.6 µM (inactive) | 28.2 µM (inactive) | 31.8 µM (inactive) | > 100 µM (inactive) | 26.7 µM (inactive) | 17.5 µM (inactive) | 17.1 µM (inactive) | 31 µM (inactive) | 29.2 µM (inactive) | 39.3 µM (inactive) | 22.5 µM (inactive) | 27.9 µM (inactive) | 29.5 µM (inactive) | 22.8 µM (inactive)
9 | O=[N+]([O-])c1ccc(-c2nn3c(C45CC6CC(CC(C6)C4)C5)nnc3s2)c(Cl)c1 | > 100 µM (inactive) | > 100 µM (inactive) | > 100 µM (inactive) | > 100 µM (inactive) | > 100 µM (inactive) | > 100 µM (inactive) | > 100 µM (inactive) | > 100 µM (inactive) | > 100 µM (inactive) | > 100 µM (inactive) | > 100 µM (inactive) | > 100 µM (inactive) | > 100 µM (inactive) | > 100 µM (inactive) | > 100 µM (inactive) | > 100 µM (inactive) | > 100 µM (inactive) | > 100 µM (inactive) | > 100 µM (inactive) | > 100 µM (inactive)
10 | O=C1NC(N2CCCCC2)=N/C1=C\c1cccs1 | > 100 µM (inactive) | > 100 µM (inactive) | > 100 µM (inactive) | > 100 µM (inactive) | > 100 µM (inactive) | > 100 µM (inactive) | > 100 µM (inactive) | > 100 µM (inactive) | > 100 µM (inactive) | > 100 µM (inactive) | > 100 µM (inactive) | > 100 µM (inactive) | > 100 µM (inactive) | > 100 µM (inactive) | > 100 µM (inactive) | > 100 µM (inactive) | > 100 µM (inactive) | > 100 µM (inactive) | > 100 µM (inactive) | > 100 µM (inactive)
11 | CC1(O)CC2(O)C=CC3=C(C(=O)c4cccc(O)c4C3=O)C2(O)C(=O)C1O (stereo not given) | 0.124 µM (active) | 0.964 µM (active) | 1.8 µM (inactive) | 9.95 µM (inactive) | 1.47 µM (inactive) | 2.3 µM (inactive) | 1.63 µM (inactive) | 2.44 µM (inactive) | 2.43 µM (inactive) | 0.152 µM (active) | 7.83 µM (inactive) | 10.6 µM (inactive) | 1.26 µM (inactive) | 1.96 µM (inactive) | 8 µM (inactive) | 5.04 µM (inactive) | 21.6 µM (inactive) | 1.51 µM (inactive) | 0.863 µM (active) | 2.94 µM (inactive)
12 | COc1cc(C2c3cc4c(cc3[C@@H](Nc3cccc(O)c3)C3COC(=O)[C@H]23)OCO4)cc(OC)c1O (stereo not given in full) | 1.32 µM (inactive) | 1.44 µM (inactive) | 2.95 µM (inactive) | 0.439 µM (active) | 0.703 µM (active) | 0.191 µM (active) | 0.668 µM (active) | 5.16 µM (inactive) | 3.33 µM (inactive) | 6.17 µM (inactive) | 1.4 µM (inactive) | 0.771 µM (active) | 0.948 µM (active) | 2.07 µM (inactive) | 3.31 µM (inactive) | 8.26 µM (inactive) | 0.817 µM (active) | 12.2 µM (inactive) | 1.76 µM (inactive) | 1.2 µM (inactive)
13 | CC(=O)NC1C(OCc2ccccc2)OC(CO)C(O)C1OC(C)C(=O)NC(C(=O)NC(CCC(=O)NCCCCNc1c2ccccc2nc2cccc([N+](=O)[O-])c12)C(N)=O)C(C)C (stereo not given) | 0.186 µM (active) | 1.56 µM (inactive) | 1.45 µM (inactive) | 1.29 µM (inactive) | 1.67 µM (inactive) | 0.178 µM (active) | 1.97 µM (inactive) | 2.65 µM (inactive) | 1.14 µM (inactive) | 1.05 µM (active) | 49.2 µM (inactive) | 3.27 µM (inactive) | 0.76 µM (active) | 1.81 µM (inactive) | 2.36 µM (inactive) | 2.71 µM (inactive) | 3.15 µM (inactive) | 1.24 µM (inactive) | 0.975 µM (active) | 2.09 µM (inactive)

Source: ChEMBL document CHEMBL1201862, “PubChem BioAssay data set” (2004)
